Assay results from paper PMC5283653, “Structural aspects of nucleotide ligand binding by a bacterial 2H phosphoesterase” (PLoS ONE, 2017).
pKd: −log10 of the molar value. Read-outs that look alike come from different tables or passages of the source.

Key:
[1] = target: T1, LigT (Escherichia coli, UniProt Z9E1N8ZL79); experiment: turnover to […]′-AMP seen in crystal; format: biochemical; settings: 0.1 M Tris-HCl pH 7.4-7.5, 0.2 M MgCl2, PEG 8000; 5 mM ligand
T1 construct: N-terminal His6 tag with TEV site, tag cut with TEV protease; expressed in E. coli BL21(DE3); 20 kDa; monomer in solution

[2] = target: T1, LigT; experiment: isothermal titration calorimetry; co-crystal structure; format: binding; settings: 10 mM HEPES pH 7.5, 0.2 M NaCl, 0.1 mM TCEP, 25 °C, active site, read-out: dissociation constant

For `Nc1ncnc2c1ncn2[C@@H]1O[C@H](CO)[C@H]2OP(=O)(O)O[C@H]21` [2′,3′-cAMP], which “turnover to 2′-AMP seen in crystal” value [1] is on record?
Its value is “the reaction product is bound in the crystals grown in the presence of the substrate”.

With `Nc1ncnc2c1ncn2[C@@H]1O[C@H](CO)[C@@H](O)[C@H]1OP(=O)(O)O` [2′-AMP] as the molecule, how does the pKd ([2]; crystal grown with 2′,3′-cAMP) read?
Its pKd is 3.85.

`Nc1ncnc2c1ncn2[C@@H]1O[C@H](CO)[C@@H](OP(=O)(O)O)[C@H]1O` [3′-AMP] was tested. Which pKd [2] did it give?
Its pKd is 3.74.

With `Nc1ncnc2c1ncn2[C@@H]1O[C@H](COP(=O)(O)OP(=O)(O)OP(=O)(O)O)[C@@H](O)[C@H]1O` [ATP] as the molecule, how does the pKd ([2]; second crystal form 5LDP) read?
The pKd was 4.15.

How did the pKd ([2]; product analogue) turn out when `NC(=O)c1ccc[n+]([C@@H]2O[C@H](COP(=O)(O)OP(=O)(O)OC[C@H]3O[C@@H](n4cnc5c(N)ncnc54)[C@H](OP(=O)(O)O)[C@@H]3O)[C@@H](O)[C@H]2O)c1` [NADP^+] was run?
Its pKd is 4.40.
